Read-outs that look alike come from different tables or passages of the source.
How the values were obtained:
dermatophyte isolates = assay: Susceptibility of dermatophytes, results stated over all isolates; format: cell-based; settings: read-out: mean MICs across all the isolates
Description: (§1) Isolates were tested using the method described in the National Committee for Clinical Laboratory Standards (NCCLS) document M38-P for filamentous fungi, with dermatophyte specific modifications described by Fernández-Torres et al, Current topics in Medical Mycology, 14-19 Feb. 1999.
Five dermatophyte isolates were, namely; T. rubrum, T. mentagrophytes, T. tonsurans, M. canis and M. gypseum, all of which produce lipases and some, phospholipase. These isolates were tested by the broth microdilution method according to NCCLS document M38-P, for activity against selected antifungal agents. In addition, ten randomly selected isolates of T. tonsurans were also tested. All isolates were maintained on SDA at 28° C. Candida parapsilosis (ATCC 20019) was used as the reference control is organism. […]
Fungal cultures were subcultured onto Potato Dextrose Agar and grown at 28° C. for 7-10 days. […] Inoculum quantification was performed by plating 100 μl of the 1:1000 dilution of the adjusted inoculum on SDA plates, incubated at 28° C., and after 7 days of incubation, the colonies were counted.
Testing was based on NCCLS M38-P document for testing filamentous moulds. […] Plates were incubated at 28° C. for 7 days, and read at 3 days and 7 days of incubation. […]
Growth in microtitre trays were read by visual inspection by using an illuminated-reversed mirror. […]

[1] = tested on: ten randomly selected isolates of T. tonsurans; assay: Susceptibility of ten T. tonsurans isolates, broth microdilution NCCLS M38-P; format: cell-based; settings: for MIC: Trichophyton tonsurans
Description: as §1
Five dermatophyte isolates were, namely; T. rubrum, T. mentagrophytes, T. tonsurans, M. canis and M. gypseum, all of which produce lipases and some, phospholipase. These isolates were tested by the broth microdilution method according to NCCLS document M38-P, for activity against selected antifungal agents. In addition, ten randomly selected isolates of T. tonsurans were also tested. All isolates were maintained on SDA at 28° C. Candida parapsilosis (ATCC 20019) was used as the reference control is organism.
The microdilution plates used were a single lot of RPMI 1640 basal medium (JRH bioScience Inc. Lenexa, Kans., USA) with L-glutamine and without sodium bicarbonate, buffered to pH 7.0, at 25° C., with 0.165 M (MOPS) morpholinepropanesulfonic acid (Sigma).
Powdered drugs were dissolved in 100% dimethyl sulfoxide (DMSO), at concentrations 100 times higher than the final test concentration. All compounds were prepared in 100% (DMSO). For ITRA and TRB, two-fold drug dilutions were prepared in 100% DMSO at 100 times the final concentration, followed by further dilution 1:50 in RPMI medium, to yield 2× the final strength required for the test.
Fungal cultures were subcultured onto Potato Dextrose Agar and grown at 28° C. for 7-10 days. Fungal suspensions were covered with 5 ml of distilled water, and then colonies were scraped off with cotton tipped swabs. The resulting mixture of conidia and hyphae elements was withdrawn, transferred to a sterile tube and then vortexed with glass beads. After the particles settled, the upper homogeneous suspension was collected and its density adjusted by a densitometer to a 0.5 McFarland standard at the wavelength of 530 nm (80-85% transmittance). These stock suspensions were then diluted 1:50 with RPMI medium to obtain final working inoculum concentration ranging from 0.3×10^4 to 9×10^4 CFU/ml. Inoculum quantification was performed by plating 100 μl of the 1:1000 dilution of the adjusted inoculum on SDA plates, incubated at 28° C., and after 7 days of incubation, the colonies were counted.
Testing was based on NCCLS M38-P document for testing filamentous moulds. Testing was carried out in sterile 96-well flat bottomed microtitre plate. Columns 1 and 3 to 12 were filled with 100 μl of RPMI medium, leaving column 2 unfilled. Columns 1, 2 and 3 were filled with 100 μl of 2× drug concentration. Serial dilutions were then made by transferring 100 μl from column 3 to each column up to column 11, and 100 μl from column 11 was discarded. Column 12 served as drug free growth control. Finally, 100 μl of inoculum suspension was added to all wells except column 1, which acted as sterility control (Columns 1 and 12 served as sterility and growth control respectively). Plates were incubated at 28° C. for 7 days, and read at 3 days and 7 days of incubation. All testing was performed in duplicate, on three separate occasions.
Growth in microtitre trays were read by visual inspection by using an illuminated-reversed mirror. Growth in each well was compared with the “growth control” drug free well. The MIC end point for all the drugs was chosen to be the first well with 100% growth inhibition (i.e. the lowest drug concentration inhibiting growth).

For `CCCC[N+](CCCC)(CCCC)CCCCCCCCCCCC[N+](CCCC)(CCCC)CCCC` [Compound 3, 1,12-bis(tributylammonium)do-decane dibromide], the MIC (dermatophyte isolates) was 2.62 to 7.61 µg/mL, the “MIC Range” value ([1]; T. tonsurans 1) was 1.9 to 3.8 µg/mL and the “MIC Range” value ([1]; T. tonsurans 2) was 0.45 to 7.6 µg/mL. For the same molecule, the “MIC Range” value ([1]; T. tonsurans 4) was 0.45 to 3.8 µg/mL, the “MIC Range” value ([1]; T. tonsurans 5) was 0.45 to 7.6 µg/mL and the “MIC Range” value ([1]; T. tonsurans 6) was 0.45 to 15.25 µg/mL. For the same molecule, the “MIC Range” value ([1]; T. tonsurans 7) was 0.45 to 3.8 µg/mL, the “MIC Range” value ([1]; T. tonsurans 8) was 0.45 to 3.8 µg/mL and the “MIC Range” value ([1]; T. tonsurans 9) was 3.8 to 15.25 µg/mL. The “MIC Range” value ([1]; T. tonsurans 10) was 3.8 to 7.6 µg/mL, the “MIC Range” value ([1]; T.tonsurans 3) was 0.45 to 3.8 µg/mL and the MIC ([1]; T. tonsurans 1, read-out: MIC GM) was 3.02 µg/mL. It also gave an MIC ([1]; T. tonsurans 2, read-out: MIC GM) of 1.15 µg/mL, an MIC ([1]; T. tonsurans 2, read-out: MIC Mean) of 2.83 µg/mL and an MIC ([1]; T. tonsurans 4, read-out: MIC GM) of 1.87 µg/mL. For the same molecule, the MIC ([1]; T. tonsurans 4, read-out: MIC Mean) was 2.68 µg/mL, the MIC ([1]; T. tonsurans 5, read-out: MIC GM) was 2.96 µg/mL and the MIC ([1]; T. tonsurans 5, read-out: MIC Mean) was 5.22 µg/mL. For the same molecule, the MIC ([1]; T. tonsurans 6, read-out: MIC GM) was 4.32 µg/mL, the MIC ([1]; T. tonsurans 6, read-out: MIC Mean) was 6.94 µg/mL and the MIC ([1]; T. tonsurans 7, read-out: MIC GM) was 1.87 µg/mL. The MIC ([1]; T. tonsurans 7, read-out: MIC Mean) was 2.68 µg/mL, the MIC ([1]; T. tonsurans 8, read-out: MIC GM) was 2.48 µg/mL and the MIC ([1]; T. tonsurans 8, read-out: MIC Mean) was 3.13 µg/mL. For the same molecule, the MIC ([1]; T. tonsurans 9, read-out: MIC GM) was 6.04 µg/mL, the MIC ([1]; T. tonsurans 9, read-out: MIC Mean) was 7.61 µg/mL and the MIC ([1]; T. tonsurans 10, read-out: MIC GM) was 4.52 µg/mL. It also gave an MIC ([1]; T. tonsurans 10, read-out: MIC Mean) of 4.75 µg/mL, an MIC ([1]; T.tonsurans 3, read-out: MIC GM) of 1.87 µg/mL and an MIC ([1]; T.tonsurans 3, read-out: MIC Mean) of 2.68 µg/mL. The MIC ([1]; read-out: MIC Mean, T. tonsurans 1) was 3.17 µg/mL.
